Measurements as given in patent US20090137565A1, “Method for treatment of movement disorders” (The Trustees of Columbia University in the City of New York, priority 2004, published 2009).

Tested on: medication-refractory, ethanol-responsive ET
Assay: Twenty-patient open-label trial of sodium oxybate, blinded WHIGET (ET patients)
Assay type: in vivo, human
Details: for Kinetic tremor score: dose 0 score 15.4; for Postural tremor score: dose 0 score 2.4
Text: Twenty patients age 18 or older were recruited from a clinical practice at the Movement Disorders Division of Columbia University Medical Center. Eligible patients with medication-refractory, ethanol-responsive myoclonus (6 PHM, 3 MD, 2 PME) or ET (9 patients) (Table 1) were offered enrollment from February 2004 to March 2005. The medical center's institutional review board approved the protocol, and written informed consent was obtained from all participants. All had myoclonus or ET that improved (by self-report) with ingestion of ethanol. All patients were medication-refractory, defined as obtaining inadequate benefit from best medical treatment or being unable to tolerate treatment. The dose and timing of other medications were kept constant before and during the trial.
Twelve men and 8 women enrolled. Results from patients #6, and #s 1, 2, 7, 12, and 13 were reported previously. Frucht, S. J., et al. Mov Disord 20:745-51 (2005); Frucht, S. J., et al. Mov Disord 20:1330-7 (2005). Mean age/symptom duration was 43.9 yrs/12.3 yrs (myoclonus) and 71.2 yrs/26.7 yrs (ET). Patients with myoclonus were examined and videotaped at each visit using the Unified Myoclonus Rating Scale (UMRS), and patients with ET were examined and videotaped using the modified Washington Heights Inwood Genetic Essential Tremor Rating Scale (WHIGET; Appendix 1). Frucht, S. J., et al. Mov Disord 20:1330-7 (2005). After initial baseline examination and videotaping, patients took 1 gm of sodium oxybate by mouth (2 ml of the standard 0.5 gm/ml solution dissolved in 60 ml of water), and one hour later the videotaped examination was repeated. Patients were maintained on a dose of 1 gm T.I.D. (taken before meals) until their next office visit two weeks later, when the examination and videotaping were repeated one hour after receiving 1.5 gm of sodium oxybate. Subsequent visits and dose titrations at two-week intervals were repeated until the maximum dose was reached (3 gm T.I.D), patients were satisfied with the results of treatment, or until they developed side effects that they viewed as troublesome. Dosing for patients #1, 2, 6, 7, 12, and 13 was slightly different (1 gm BID, with dose increments of 2 gm to maximum dose of 4 gm BID), but office visits and videotaping protocol were otherwise identical.
The entire videotape segments and writing samples from each visit were copied and randomly ordered, and identifying features that might reveal trial order or drug dose were removed. A blinded movement disorder neurologist scored each videotape segment using the UMRS or the WHIGET. Sub-scores for each visit were calculated as described previously. Frucht, S. J., et al. Mov Disord 20:1330-7 (2005). Based on data from the first two ET cases, and assuming alpha=0.05, power=80%, and a 25% reduction in post-treatment tremor severity, we calculated that eight ET cases were required. A similar number of myoclonus patients would provide >80% power to detect a 25% reduction in the severity of post-treatment action myoclonus. Paired t tests were performed for scores pre- and post-treatment.

For O=C([O-])CCCO.[Na+] [GHB, 4-hydroxybutanoic acid monosodium salt], the Kinetic tremor score (1 gm, p 0.011*) was 11.5 (0.011)*, the Postural tremor score (1 gm, p 0.029*) was 1.7 (0.029)* and the Postural tremor score (1.5 gm, p 0.001**) was 1.1 (0.001)**. The Kinetic tremor score (1.5 gm, p 0.006**) was 8.8 (0.006)**, the Postural tremor score (2 gm, p 0.006**) was 1.4 (0.006)** and the Kinetic tremor score (2 gm, p 0.006**) was 9.1 (0.006)**. The “dose of maximal improvement” value (ET, postural and kinetic tremor scores) was 1.5 gm, the “time at which improvement in action tremor during pouring was evident” value (patient #15 (ET), after 1.5 gm) was 45 min and the “time at which improvement in action tremor during pouring was obvious” value (patient #15 (ET), after 1.5 gm) was 60 min. The “kinetic tremor during tasks (drawing, sipping water from spoon)” value (patient #17 (ET), FIG. 4) was “Improvement in kinetic tremor during tasks was evident”.
